# Measured values from US20260166021A1, “POLYMORPHIC FORMS OF A SOLUBLE EPOXIDE HYDROLASE INHIBITOR AND FORMULATIONS THEREOF” (EicOsis, LLC, priority 2022, published 2026).
# Legend:
# [1] = Kinetic solubility in sodium lauryl sulfate (SLS) 60 mM, with XRD of remaining solid; format: physicochemical; settings: room temperature
# Procedure: The mixture was stirred at room temperature with astir bar. The samples (n=3) were collected at each predetermined time points (5, 10, 15, 20, 30, 60, 90, 120, and 180 minutes) and centrifuged. The filtrate was analyzed by H PLC to determine solubility, and the remaining solid was analyzed by XRD as appropriate. Three replicates were performed for each condition.
# The advantages of achieving higher degree of supersaturation from milled material (by providing larger surface area) and amorphous material (by providing higher solubility) were offset by phase transformation from Form D to Pattern C (i.e. hydrate form).
# In each figure, the top spectrum corresponds to pure Form C, the second figure from the top of the figure corresponds to pure Form D, the third spectrum from the top of the figure corresponds to solid collected following 5 minutes of solubilization, the fourth spectrum from the top corresponds to solid collected following 60 minutes of solubilization, the fifth spectrum from the top corresponds to solid collected following 90 minutes of solubilization, and the bottom spectrum corresponds to solid collected following 180 minutes of solubilization. As indicated by these XRD data, the milled and amorphous materials were converted into Pattern C within 5 min after exposure to the dissolution medium. […]
# [2] = Bulk and tapped density (tap density tester); format: physicochemical
# Description: Before milling, Form D was screened through a 30-micron mesh sieve. Then, Form D micronized using a 2-inch jet mill 70 psig feed pressure, 40 psig grinding pressure, and a 4.3 g/min powder feed rate. The micronization process provided a 69% yield and 95.6% crystallinity relative to the unmilled material.
smiles,measurement,setting,value
"CC[C@H](C)C(=O)N1CCC(NC(=O)Nc2ccc(OC(F)(F)F)c(F)c2)CC1 [unmilled Form D, (S)-1-(3-fluoro-4-(trifluoromethoxy)phenyl)-3-(1-(2-methylbutanoyl)piperidin-4-yl)urea]",time to full transition to the hydrate form (Form C),[1],60 min
same,bulk density,[2],0.54 g/mL
same,tapped density,[2],0.61 g/mL
